{"source": "patent US20240216395A1", "about": "“19-NOR C3,3-DISUBSTITUTED C21 -N-PYRAZOLYL STEROID FOR USE IN TREATING MAJOR DEPRESSIVE DISORDER AND […]” (priority 2021, published 2024)", "key": {"[1]": {"tested_on": "nondependent, recreational users of CNS depressants", "test": "Abuse potential main study, treatment phase: TEAEs", "type": "in vivo, human", "settings": "treatment phase", "procedure": "The main study consisted of 4 phases (FIG. 30B). The screening phase was a 1-day visit occurring within 21 days of the beginning of the qualification phase. The qualification phase was a 4-day, inpatient period to ensure participants could discriminate between alprazolam (active comparator) and placebo, and that they could tolerate the alprazolam 2-mg doses. Participants received single-oral doses of alprazolam 2 mg and placebo in a crossover manner 24 hours apart, and if they could discriminate between the two medications, they continued to the treatment phase. The treatment phase was a double-blind, active- and placebo-controlled, 6-way crossover design where participants were randomized equally to a single oral dose of 1 of 6 treatments: placebo, alprazolam (1.5 and 3 mg), and Compound (1) (30, 60, and 90 mg). The Compound (1) doses were based on the results from the first part, dose selection, and treatments were separated by 7 days. The follow-up phase was a 1-day visit occurring 7 (2) days after the treatment phase.\nSafety and tolerability endpoints included the frequency and severity of AEs and SAEs, the change from baseline in clinical laboratory assessments, vital signs, and ECG, and suicidality assessed by the Columbia-Suicide Severity Rating Scale (C-SSRS).\nThe dose selection safety set included all participants who received 1 dose of Compound (1). The main study qualification safety set included all participants who received ≥1 dose of alprazolam. For the treatment phase, the randomized set included all participants who were randomized and the safety set included all participants who received ≥1 dose of Compound (1) or alprazolam. The completer set included all participants in the randomized set who completed all treatment periods, had sufficient data for evaluation of the primary endpoint, and had ≥1 observation within 2 hours of Tmax for each treatment for Drug Liking VAS scores. […] The PK set included all participants in the treatment phase who received 1 dose of Compound (1) and had 1 PK sample after dosing."}, "[2]": {"tested_on": "nondependent, recreational users of CNS depressants", "test": "Abuse potential main study, treatment phase: subjective VAS measures (Drug Liking, Overall Drug Liking, Take Drug Again, High, Good/Bad/Any Drug Effects, Alertness/Drowsiness, Drug Similarity)"}, "[3]": {"settings": "Alprazolam 1.5 mg - placebo (study validity)"}, "[4]": {"settings": "Alprazolam 3 mg - placebo (study validity)"}}}
{"smiles": "Cc1nnc2n1-c1ccc(Cl)cc1C(c1ccccc1)=NC2", "note": "[Alprazolam, alprazolam, reference compound]", "values": [{"measurement": "Back pain (TEAE)", "setting": "[1]; Alprazolam 1.5 mg (n = 71)", "value": 0, "unit": "n"}, {"measurement": "Confusional state (TEAE)", "setting": "[1]; Alprazolam 1.5 mg (n = 71)", "value": 0, "unit": "n"}, {"measurement": "Fine motor skill dysfunction (TEAE)", "setting": "[1]; Alprazolam 1.5 mg (n = 71)", "value": 0, "unit": "n"}, {"measurement": "Hiccups (TEAE)", "setting": "[1]; Alprazolam 1.5 mg (n = 71)", "value": 0, "unit": "n"}, {"measurement": "Irritability (TEAE)", "setting": "[1]; Alprazolam 1.5 mg (n = 71)", "value": 0, "unit": "n"}, {"measurement": "Swelling face (TEAE)", "setting": "[1]; Alprazolam 1.5 mg (n = 71)", "value": 0, "unit": "n"}, {"measurement": "Tremor (TEAE)", "setting": "[1]; Alprazolam 1.5 mg (n = 71)", "value": 0, "unit": "n"}, {"measurement": "Feeling drunk (TEAE)", "setting": "[1]; Alprazolam 3 mg (n = 66)", "value": 0, "unit": "n"}, {"measurement": "Fine motor skill dysfunction (TEAE)", "setting": "[1]; Alprazolam 3 mg (n = 66)", "value": 0, "unit": "n"}, {"measurement": "Irritability (TEAE)", "setting": "[1]; Alprazolam 3 mg (n = 66)", "value": 0, "unit": "n"}, {"measurement": "Swelling face (TEAE)", "setting": "[1]; Alprazolam 3 mg (n = 66)", "value": 0, "unit": "n"}, {"measurement": "Tremor (TEAE)", "setting": "[1]; Alprazolam 3 mg (n = 66)", "value": 0, "unit": "n"}, {"measurement": "Upper respiratory tract infection (TEAE)", "setting": "[1]; Alprazolam 3 mg (n = 66)", "value": 0, "unit": "n"}, {"measurement": "Drug Liking Emax difference", "setting": "[2]; Alprazolam 1.5 mg - placebo", "value": 22.50}, {"measurement": "Overall Drug Liking Emax difference", "setting": "[2]; Alprazolam 1.5 mg - placebo", "value": 24.00}, {"measurement": "Take Drug Again Emax difference", "setting": "[2]; Alprazolam 1.5 mg - placebo", "value": 24.00}, {"measurement": "Bad Drug Effects Emax difference", "setting": "[2]; [3]", "value": 0.00}, {"measurement": "Good Drug Effects Emax difference", "setting": "[2]; [3]", "value": 49.00}, {"measurement": "High Effects Emax difference", "setting": "[2]; [3]", "value": 43.80}, {"measurement": "Drug Liking Emax difference", "setting": "[2]; Alprazolam 3 mg - placebo", "value": 25.52}, {"measurement": "Overall Drug Liking Emax difference", "setting": "[2]; Alprazolam 3 mg - placebo", "value": 26.00}, {"measurement": "Take Drug Again Emax difference", "setting": "[2]; Alprazolam 3 mg - placebo", "value": 29.00}, {"measurement": "Bad Drug Effects Emax difference", "setting": "[2]; [4]", "value": 1.00}, {"measurement": "Good Drug Effects Emax difference", "setting": "[2]; [4]", "value": 53.47}, {"measurement": "High Effects Emax difference", "setting": "[2]; [4]", "value": 51.65}, {"measurement": "Drug Similarity: Placebo Similarity median score", "setting": "[2]; all dosages, 12 hours postdose", "value": "zero"}, {"measurement": "Drug Similarity: Benzodiazepines Similarity median score", "setting": "[2]; alprazolam 1.5 mg", "value": 92.5}, {"measurement": "Drug Similarity: Opioids Similarity median score", "setting": "[2]; alprazolam 3 mg", "value": 40.0}]}
